Earlier results as cited in patent publication US20210322384A1, “Method of Treatment for Ketamine Infusion” (Eleusis therapeutics us, inc., priority 2018, published 2021).
Where two headings read alike, the source gives them in different places.

Legend:
[1] = system: patients; settings: for improvement in MADRS score relative to standard antidepressants alone: plus standard antidepressants
[2] = system: patients; settings: current state of the art ketamine treatments; industry standard

Compound | reduction in MADRS score relative to control group ([1]; after 25 days) | improvement in MADRS score relative to standard antidepressants alone ([1]; at 24 hours after intranasal 84 mg) | improvement in MADRS score relative to standard antidepressants alone ([1]; at four hours after intranasal 84 mg) | side effects of nasal spray protocol ([1]; intranasal 84 mg aerosol spray) | response rate in alleviating depression symptoms [2] [%]
CN[C@]1(c2ccccc2Cl)CCCCC1=O [esketamine] | did not result in any significant reduction | significantly greater improvement | significantly greater improvement | significant side effects | –
CNC1(c2ccccc2Cl)CCCCC1=O (centres unmarked) [ketamine] | – | – | – | – | ~70
